For one series, the system named is small animal. The following applies: it has been pointed out; cited from earlier work.
The nature of series [1]: Measurement of 1-octanol/water partition coefficient (LogPOW) by HPLC, OECD Test Guideline 117. It counts as physicochemical. Conditions: for LogPOW: 1-octanol/water, HPLC, OECD Test Guideline 117, column temperature 40° C.; for bioaccumulation potential: judged from the LogPOW value, compared to APFO. As for the experimental part:
In accordance with OECD Test Guideline 117, 1-octanol/water partition coefficient (LogPOW) of a fluorinated emulsifier was measured by using HPLC (high performance liquid chromatography).
Conditions for the measurement were as follows: column: TOSOH ODS-120T column (φ 4.6 mm×250 mm), eluent: acetonitrile/0.6 mass % of HClO4 solution=1/1 (vol/vol %), flow rate: […], sample amount: 300 μL, column temperature: 40° C., and detection light: UV 210 nm (WO2005-42593).
HPLC was carried out on standard substances (heptanoic acid, octanoic acid, nonanoic acid and decanoic acid) having known 1-octanol/water partition coefficients, and a calibration curve was prepared from the respective elution times and octanol/water partition coefficients of the respective standard substances. Based on this calibration curve, a value of partition coefficient (LogPOW) between 1-octanol and water was calculated from the elution time by HPLC of the fluorinated emulsifier.
Further, in general, in order to judge whether or not a chemical substance is apt to be accumulated in a living organism, a testing method for measurement of a partition coefficient (LogPOW) between 1-octanol and water, is stipulated. As the testing method, in addition to “Partition Coefficient (1-octanol/water) Shake Flask Method” as stipulated in OECD test guideline 107 and in Japanese Industrial Standards Z 7260-107 (2000), a HPLC method (high-performance liquid chromatography) as stipulated and published in OECD Test Guideline 117, is used. A compound having a large partition coefficient value has a large tendency for bioaccumulation, and a compound having a small value means a small tendency for bioaccumulation. In a case where the LogPOW value is less than 3.5, it is considered proper to judge that it is not a high-concentration, and bioaccumulation is also considered to be small.

For the compound `N.O=C(O)C(F)(F)C(F)(F)C(F)(F)C(F)(F)C(F)(F)C(F)(F)C(F)(F)F` [CF3(CF2)6COONH4, ammonium perfluorooctanoate], in the series on small animal, the “accumulation potential in a body of a small animal” value is “has an accumulation potential”. Moreover, in series [1], the LogPOW stood at 3.67.

In the case of `N.O=C(O)C(F)(OC(F)(F)C(F)(OC(F)(F)C(F)(F)F)C(F)(F)F)C(F)(F)F` (stereo not drawn) [CF3CF2OCF(CF3)CF2OCF(CF3)COONH4], in series [1], the LogPOW stood at 4.03; the bioaccumulation potential result is “high and higher bioaccumulation potential than APFO”.

Take CF3CF2OCF2CF2OCF2COONH4: in series [1], the LogPOW stood at 3.13 and the bioaccumulation potential result is reported as “low”.

The record behind these values is patent publication US7709566B2, “Polytetrafluoroethylene aqueous dispersion and its product” (Asahi Glass Company, Limited, priority 2005, dated 2010).
